Consider two compounds from US20030017999A1, “Composition for the prevention and /or treatment of lipid metabolism disorders and allergic forms” (priority 2000, published 2003).

Data set [1] has as its system human macrophages from bronchoalveolar lavage fluid. Put plainly: Macrophage stimulation test (phagocytosis and intracellular killing). Format: cell-based. As to the method: After filtration, centrifuging and gradient separation on Ficoll, the viability of the cells was evaluated with the trypan blue test. Phagocytosis and intracellular killing were calculated according to the method described by […]. Bacterial, 98:996, 1969).

For data set [2], the system named is Mitomycin-induced toxicity (mortality). Put plainly: Mortality induced by mitomycin C in mice. Format: in vivo. As to conditions: for % animals surviving after 5 days / % animals surviving after 10 days / % animals surviving after 12 days (survival rate): mitomycin C 50 μg/mouse peritoneal for five days, alone or with isovaleryl L-carnitine 30 mg/mouse and/or β-glucan 10 mg/mouse; for % animals surviving after 5 days: day 5; for % animals surviving after 10 days: day 10; for % animals surviving after 12 days (survival rate): day 12. As to the method: Results of Tests Regarding the Immunostimulant and Protective Effect exerted against Mitomycin-induced Toxicity by the Combination of Isovaleryl L-carnitine and β-glucan
(§1) In these tests a first group of mice received peritoneal injections of 50 μg/mouse of mitomycin C for five consecutive days. In addition to mitomycin, a second group of animals were also injected with isovaleryl L-carnitine alone (30 mg/mouse), a third group with β-glucan alone (10 mg/mouse) and a fourth group with a combination of the two compounds for five consecutive days. On the fifth, tenth and twelfth day following the start of treatment, the number of leukocytes present in the blood and the mortality rates of the animals were evaluated in both treated and control animals.

In data set [3] the test system is Mitomycin-induced toxicity (leukocyte depletion). Put plainly: Leukocyte depletion induced by mitomycin C in mice. Format: in vivo. To be noted: mitomycin C 50 μg/mouse peritoneal for five days, alone or with isovaleryl L-carnitine 30 mg/mouse and/or β-glucan 10 mg/mouse; for No. leukocytes after 5 days: day 5; for No. leukocytes after 10 days: day 10; for No. leukocytes after 12 days: day 12. The method, then:
as §1

Take `CC(C)CC(=O)O[C@H](CC(=O)[O-])C[N+](C)(C)C` [Isovaleryl L-carnitine]: in data set [1], the “increase in intracellular killing” value came to 15% and the “increase in phagocyte activity” value came to 10%. For the same compound, in data set [2], the “% animals surviving after 5 days” value was found to be 50%, the “% animals surviving after 10 days” value amounted to 30% and the “% animals surviving after 12 days (survival rate)” value stood at 15%. In data set [3], the “No. leukocytes after 5 days” value is given as 5,750 ± 310, the “No. leukocytes after 10 days” value is 4,900 ± 220 and the “No. leukocytes after 12 days” value is 3,100 ± 310.
Take `CO[C@@]12[C@H](COC(N)=O)C3=C(C(=O)C(C)=C(N)C3=O)N1C[C@@H]1N[C@@H]12` [Mitomycin C]: in data set [2], the “% animals surviving after 5 days” value stood at 50%, the “% animals surviving after 10 days” value stood at 20% and the “% animals surviving after 12 days (survival rate)” value is reported as 0%. In data set [2] (mitomycin C alone 50 μg/mouse peritoneal for five days, twelfth day), the mortality rate turned out to be 100%. In data set [3], the “No. leukocytes after 5 days” value is given as 5,400 ± 270, the “No. leukocytes after 10 days” value is 3,000 ± 220 and the “No. leukocytes after 12 days” value is 1,100 ± 190.
